# Values of other authors, collected in patent US6927272B2, “Electronic component-use material and electronic component using it” (Matsushita Electric Industrial Co., Ltd., priority 2001, dated 2005).
# Conditions: cis-form; room temperature (20-30° C.)
row,Compound,Vapor Pressure
1,CC1(C)C(C=C(Cl)Cl)C1C(=O)OC(C#N)c1ccc(F)c(Oc2ccccc2)c1 (stereo not drawn) [β-cyfluthrin],cis-form 10/ nPa

# Same assay, conditions: room temperature (20-30° C.)
row,Compound,Vapor Pressure
1,CC1(C)[C@H](C(=O)O[C@H](C#N)c2cccc(Oc3ccccc3)c2)[C@@H]1C=C(Br)Br [deltamethrin],"2,000 nPa"
2,CC(C)=CC1C(C(=O)OC(C#N)c2cccc(Oc3ccccc3)c2)C1(C)C (stereo not drawn) [cyphenothrin],"400,000 nPa"
3,CC1(C)C(C=C(Cl)Cl)C1C(=O)OCc1cccc(Oc2ccccc2)c1 (stereo not drawn) [permethrin],"45,000 nPa"
4,CC1(C)[C@H](C(=O)O[C@H](C#N)c2cccc(Oc3ccccc3)c2)[C@@H]1/C=C\C(=O)OC(C(F)(F)F)C(F)(F)F [acrinathrin],390 nPa
5,CC(C)[C@@H](Nc1ccc(C(F)(F)F)cc1Cl)C(=O)OC(C#N)c1cccc(Oc2ccccc2)c1 (stereo partly drawn) [τ-fulvalinate],"13,000 nPa"
6,Cc1c(F)c(F)c(COC(=O)[C@@H]2[C@H](/C=C(\Cl)C(F)(F)F)C2(C)C)c(F)c1F (racemic) [tefluthrin],"80,000,000 nPa"
7,CC(C)[C@H](C(=O)OC(C#N)c1cccc(Oc2ccccc2)c1)c1ccc(OC(F)F)cc1 (stereo partly drawn) [flucythrinate],"1,200 nPa"
8,CC(C)=CC1C(C(=O)OCc2cccc(Oc3ccccc3)c2)C1(C)C (stereo not drawn) [phenothrin],"160,000 nPa"
9,CC1(C)[C@H](C(=O)O[C@H](C#N)c2cccc(Oc3ccccc3)c2)[C@@H]1C(Br)C(Br)(Br)Br (stereo partly drawn) [tralomethrin],0.017 nPa
10,CC(C)=CC1C(C(=O)OCc2coc(Cc3ccccc3)c2)C1(C)C (stereo not drawn) [resmethrin],"1,500 nPa"
11,CCOc1ccc([Si](C)(C)CCCc2ccc(F)c(Oc3ccccc3)c2)cc1 [silafluofen],"731,500 nPa"
12,CC(C)C(C(=O)OC(C#N)c1cccc(Oc2ccccc2)c1)c1ccc(Cl)cc1 (stereo not drawn) [fenvalerate],"37,000 nPa"
13,Cc1c(COC(=O)[C@@H]2[C@H](/C=C(\Cl)C(F)(F)F)C2(C)C)cccc1-c1ccccc1 (racemic) [bifenthrin],"24,000 nPa"
14,CC1(C)C(C=C(Cl)Cl)C1C(=O)OC(C#N)c1cccc(Oc2ccccc2)c1 (stereo not drawn) [cypermethrin],230 nPa
15,CC1(C)C(/C=C(\Cl)C(F)(F)F)C1C(=O)OC(C#N)c1cccc(Oc2ccccc2)c1 (stereo not drawn) [λ-cyhalothrin],200 nPa
16,CC(C)=CC1C(C(=O)OCN2C(=O)C3=C(CCCC3)C2=O)C1(C)C (stereo not drawn) [d-tetramethrin],"320,000 nPa"

# Same assay, conditions: trans-form; room temperature (20-30° C.)
row,Compound,Vapor Pressure [nPa]
1,CC1(C)C(C=C(Cl)Cl)C1C(=O)OC(C#N)c1ccc(F)c(Oc2ccccc2)c1 (stereo not drawn) [β-cyfluthrin],90
